This is an account of results in patent publication US20230192617A1, “AZABICYCLIC(THIO)AMIDES AS FUNGICIDAL COMPOUNDS” (Bayer CropScience Aktiengesellschaft, priority 2020, published 2023).

A short description of data set [1]: Measurement of Log P values by HPLC on reversed phase columns (EEC directive 79/831 Annex V.A8). The data set is classed as physicochemical. Conditions: method [a]: LC-UV, acidic range, 0.1% formic acid in water and acetonitrile as eluent; for chromatographic logP: reversed phase HPLC column. The gist of the method: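 Log P derived from retention on reversed-phase columns (EEC directive 79/831 Annex V.A8), LC-UV, acetonitrile gradient 10% to 95% against water containing 0.1% formic acid, 0.001 M ammonium acetate, or 0.1% phosphoric acid; several values per method separated by "+".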

A further data set relates to Alternaria brassicae. Kind of data set: In vivo preventive test on Alternaria brassicae (leaf spot on radish or cabbage). Conditions: 500 ppm of active ingredient, preventive spray on radish or cabbage, evaluated 3 to 4 days after inoculation, read-out: efficacy. The protocol: B-1. In Vivo Preventive Test on Alternaria brassicae (Leaf Spot on Radish or Cabbage) [table] The active ingredients were made soluble and homogenized in a mixture of Dimethyl sulfoxide/Acetone/Tween® 80 and then diluted in water to the desired concentration. The young plants of radish or cabbage were treated by spraying the active ingredient prepared as described above. Control plants were treated only with an aqueous solution of Acetone/Dimethyl sulfoxide/Tween® 80. After 24 hours, the plants were contaminated by spraying the leaves with an aqueous suspension of Alternaria brassicae spores. The contaminated radish or cabbage plants were incubated for 3 to 4 days at 20° C. and at 100% relative humidity.

In data set [2] the test system is Botrytis cinerea. Kind of data set: In vivo preventive test on Botrytis cinerea (grey mould). As to conditions: 500 ppm of active ingredient, preventive spray on gherkin or cabbage, evaluated 4 to 5 days after inoculation, read-out: efficacy. As to the method: B-2. In Vivo Preventive Test on Botrytis cinerea (Grey Mould) [table] The active ingredients were made soluble and homogenized in a mixture of Dimethyl sulfoxide/Acetone/Tween® 80 and then diluted in water to the desired concentration. The young plants of gherkin or cabbage were treated by spraying the active ingredient prepared as described above. Control plants were treated only with an aqueous solution of Acetone/Dimethyl sulfoxide/Tween® 80. After 24 hours, the plants were contaminated by spraying the leaves with an aqueous suspension of Botrytis cinerea spores. The contaminated gherkin plants were incubated for 4 to 5 days at 17° C. and at 90% relative humidity. The contaminated cabbage plants were incubated for 4 to 5 days at 20° C. and at 100% relative humidity.

The subject of data set [3] is Colletotrichum lindemuthianum. Kind of data set: B-8. Colletotrichum lindemuthianum in vitro cell test. The data set is classed as cell-based. Conditions: 144 h, 20 ppm of active ingredient, 6 days incubation, liquid culture, absorbance, read-out: efficacy (inhibition of fungal growth). As to the method: (§1) B-8. Colletotrichum lindemuthianum In Vitro Cell Test [table] Fungicides were solubilized in DMSO and the solution used to prepare the required range of concentrations. The final concentration of DMSO used in the assay was ≤1%. A spore suspension of C. lindemuthianum was prepared and diluted to the desired spore density. Fungicides were evaluated for their ability to inhibit spores germination and mycelium growth in liquid culture assay. The compounds were added in the desired concentration to the culture medium with spores. After 6 days incubation, fungi-toxicity of compounds was determined by spectrometric measurement of mycelium growth. Inhibition of fungal growth was determined by comparing the absorbance values in wells containing the fungicides with the absorbance in control wells without fungicides.

A further data set concerns Pyrenophora teres. Kind of data set: B-10. Pyrenophora teres in vitro cell test. The data set is classed as cell-based. As to conditions: 144 h, 20 ppm of active ingredient, 6 days incubation, liquid culture, absorbance, read-out: efficacy (inhibition of fungal growth). As to the method: as §1, with “B-10. Pyrenophora teres In” for “B-8. Colletotrichum lindemuthianum In”, “of P. teres” for “of C. lindemuthianum”, “inhibit spore” for “inhibit spores”

The test system of data set [4] is Botrytis cinerea. Kind of data set: B-11. Botrytis cinerea in vitro cell test. The data set is classed as cell-based. As to conditions: 144 h, 20 ppm of active ingredient, 6 days incubation, liquid culture, absorbance, read-out: efficacy (inhibition of fungal growth). The protocol: as §1, with “B-11. Botrytis cinerea In” for “B-8. Colletotrichum lindemuthianum In”, “of B. cinerea” for “of C. lindemuthianum”, “inhibit spore” for “inhibit spores”

The test system of a further data set is Alternaria alternata. Kind of data set: Alternaria alternata in vitro cell test. The data set is classed as cell-based. Conditions: 120 h, 20 ppm of active ingredient, liquid culture, 5 days incubation, spectrometric measurement of mycelium growth, read-out: efficacy (inhibition of fungal growth). The protocol: as §1, with “B-6. Alternaria alternata In” for “B-8. Colletotrichum lindemuthianum In”, “of A. alternata” for “of C. lindemuthianum”, “inhibit spore” for “inhibit spores”, “After 5” for “After 6”

For `C[C@@H]1CC[C@H](NC(=O)c2c(Oc3cccc(C(F)(F)F)c3)nnc3ccccc23)c2ccccc21` (mixture of isomers) [I-079], the chromatographic logP in data set [1] was 4.42. The pest or weed control at 500 ppm with Alternaria brassicae and in the data set with Botrytis cinerea [2] was 90 to 100% in each case. The inhibition at 20 ppm (in data set [3]; in the data set on Pyrenophora teres; in the data set on Botrytis cinerea [4]) was 90 to 100% in each case.
The compound `O=C(C[C@H]1C[C@@]12CCc1cc(Br)ccc12)c1c(Oc2cccc(C(F)(F)F)c2)nnc2ccccc12` (mixture of isomers) [I-097] yielded a chromatographic logP in data set [1] of 4.74. Besides, the pest or weed control at 500 ppm with Botrytis cinerea [2] lay in the range of 80 to 89%. The inhibition at 20 ppm in the data set on Alternaria alternata is 80 to 89%; in data set [3], 90 to 100%; in the data set with Pyrenophora teres, 90 to 100%; in the data set with Botrytis cinerea [4], 90 to 100%.
In data set [1], `COc1ccc2c(c1)[C@@H](NC(=O)c1c(Oc3cccc(C(F)(F)F)c3)nnc3ccccc13)[C@@H](OC)CC2` (mixture of isomers) [I-180] yielded a LogP of 4.02. This compound also had a chromatographic logP in data set [1] of 3.78. The results for the pest or weed control at 500 ppm in the data set with Alternaria brassicae and in the data set with Botrytis cinerea [2] were 90 to 100% and 80 to 89%, respectively. Besides, the inhibition at 20 ppm (in data set [3]; with Pyrenophora teres; in the data set with Botrytis cinerea [4]) was 90 to 100% each time.
Compound `Cc1cccc2c1OCC[C@@H]2NC(=O)c1c(Oc2cccc(C(F)(F)F)c2)nnc2ccccc12` (racemic) [I-082] registered a chromatographic logP in data set [1] of 4.07. Also, the pest or weed control at 500 ppm in the data set on Alternaria brassicae and with Botrytis cinerea [2] was 90 to 100% in each case. Also, the inhibition at 20 ppm (in the data set on Alternaria alternata; in data set [3]; with Pyrenophora teres; with Botrytis cinerea [4]) was 90 to 100% in each case.
Consider `O=C(N[C@H]1CCSc2ccc(F)cc21)c1c(Oc2cccc(C(F)(F)F)c2)nnc2ccccc12` (racemic) [I-095], for which the chromatographic logP in data set [1] was determined as 4.02. Moreover, the pest or weed control at 500 ppm in the data set on Botrytis cinerea [2] fell in the range of 90 to 100%. The inhibition at 20 ppm in the data set with Alternaria alternata fell in the range of 70 to 79%; in data set [3], 80 to 89%; in the data set with Pyrenophora teres it was 90 to 100%; in the data set on Botrytis cinerea [4], 90 to 100%.
With `Cn1cc(-c2ccc(C(F)(F)CNC(=O)c3c(Oc4cccc(C(F)(F)F)c4)nnc4ccccc34)c(Cl)c2)cn1` [I-065], the chromatographic logP in data set [1] was 3.71. The pest or weed control at 500 ppm with Alternaria brassicae and with Botrytis cinerea [2] was 90 to 100% each time. Further, the inhibition at 20 ppm in the data set with Alternaria alternata was 70 to 79%; in the data set with Pyrenophora teres it was 90 to 100%; with Botrytis cinerea [4], 90 to 100%.
The compound `Cc1ccc(CCNC(=O)c2c(Oc3cccc(C(F)(F)F)c3)nnc3ccccc23)o1` [I-075] displayed a chromatographic logP in data set [1] of 3.6. For the same compound, the inhibition at 20 ppm (in the data set with Alternaria alternata; in data set [3]; in the data set with Pyrenophora teres; with Botrytis cinerea [4]) was 90 to 100% each time.
For `Cc1cnn(CCNC(=O)c2c(Oc3cccc(C(F)(F)F)c3)nnc3ccccc23)c1` [I-076], in data set [1], the chromatographic logP came out at 2.74. Further, the pest or weed control at 500 ppm in the data set on Alternaria brassicae lay in the range of 80 to 89%. Moreover, the inhibition at 20 ppm (in data set [3]; with Pyrenophora teres; in the data set on Botrytis cinerea [4]) was 90 to 100% each time.
On to `O=C(NCCOc1ccc(Cl)cc1)c1c(Oc2cccc(C(F)(F)F)c2)nnc2ccccc12` [I-085], for which the chromatographic logP in data set [1] was found to be 3.94. For the same compound, the pest or weed control at 500 ppm with Alternaria brassicae fell in the range of 90 to 100%. The inhibition at 20 ppm fell in the range of 90 to 100% with Alternaria alternata, 80 to 89% in data set [3], 90 to 100% in the data set on Pyrenophora teres and 90 to 100% with Botrytis cinerea [4].
Turning to `CC(C)Oc1ccc(CCNC(=O)c2c(Oc3cccc(C(F)(F)F)c3)nnc3ccccc23)cn1` [I-087], the chromatographic logP in data set [1] is 3.63. Besides, the pest or weed control at 500 ppm with Alternaria brassicae lay in the range of 80 to 89%. Further, the inhibition at 20 ppm (in the data set with Alternaria alternata; in data set [3]; with Pyrenophora teres; in the data set with Botrytis cinerea [4]) was 90 to 100% in each case.
For `COc1ccc(CCN(C(C)=O)C(=O)c2c(Oc3cccc(C(F)(F)F)c3)nnc3ccccc23)cc1` [I-090], the chromatographic logP in data set [1] came to 4.32. Also, the pest or weed control at 500 ppm with Alternaria brassicae and in the data set with Botrytis cinerea [2] was 90 to 100% each time. The inhibition at 20 ppm was in the range of 80 to 89% in data set [3], 90 to 100% in the data set on Pyrenophora teres and 90 to 100% in the data set on Botrytis cinerea [4].
Take `O=C(N[C@H]1CCCc2ccc(Cl)cc21)c1c(Oc2cccc(C(F)(F)F)c2)nnc2ccccc12` [I-094]: the chromatographic logP in data set [1] came out at 4.44. The inhibition at 20 ppm with Alternaria alternata was 70 to 79%; in data set [3] it was 90 to 100%; with Pyrenophora teres, 90 to 100%; in the data set on Botrytis cinerea [4], 90 to 100%.
On to `N#Cc1ccc(C(F)(F)CNC(=O)c2c(Oc3cccc(C(F)(F)F)c3)nnc3ccccc23)c(Cl)c1` [I-098], for which the chromatographic logP in data set [1] came out at 3.94. Also, the pest or weed control at 500 ppm in the data set with Botrytis cinerea [2] was in the range of 90 to 100%. The results for the inhibition at 20 ppm in the data set on Alternaria alternata, with Pyrenophora teres and with Botrytis cinerea [4] were 80 to 89%, 90 to 100% and 90 to 100%, respectively.
Regarding `Cc1ccc(C(F)CNC(=O)c2c(Oc3cccc(C(F)F)c3)nnc3c2CCCC3)c(C)c1` (stereo not drawn) [I-135], in data set [1], the chromatographic logP was found to be 3.53. The inhibition at 20 ppm (with Alternaria alternata; in data set [3]; in the data set with Pyrenophora teres; in the data set with Botrytis cinerea [4]) was 90 to 100% in each case.
Compound `Cc1ccc(C(F)(F)CNC(=O)c2c(Oc3cccc(C(F)(F)F)c3)nnc3cc(F)ccc23)c(C)c1` [I-166] had a chromatographic logP in data set [1] of 4.74. Moreover, the inhibition at 20 ppm (in the data set with Alternaria alternata; in data set [3]; with Pyrenophora teres; in the data set on Botrytis cinerea [4]) was 90 to 100% each time.
Compound `C=C(OCC)c1ccc(C(F)(F)CNC(=O)c2c(Oc3cccc(C(F)(F)F)c3)nnc3ccccc23)c(Cl)c1` [I-169] gave a chromatographic logP in data set [1] of 5.16. Further, the pest or weed control at 500 ppm in the data set on Alternaria brassicae lay in the range of 90 to 100%. Besides, the inhibition at 20 ppm lay within 80 to 89% in data set [3], 90 to 100% with Pyrenophora teres and 90 to 100% in the data set with Botrytis cinerea [4].
Compound `O=C(N[C@H]1CCOc2cc(F)ccc21)c1c(Oc2cccc(C(F)(F)F)c2)nnc2ccccc12` [I-178] registered a chromatographic logP in data set [1] of 3.69. For the same compound, the pest or weed control at 500 ppm in the data set on Alternaria brassicae was 90 to 100%. In addition, the inhibition at 20 ppm (in data set [3]; with Pyrenophora teres; in the data set on Botrytis cinerea [4]) was 90 to 100% throughout.

As a reminder, the chromatographic logP is a lipophilicity value derived from retention on a column. As a reminder, the inhibition is the drop in the measured response relative to a control, in per cent. For orientation: LogP means the decadic logarithm of the partition coefficient of the neutral form, usually between octanol and water. A lower LogP goes with lower lipophilicity.
